In test [1] the test system is Candida albicans. As to the kind of experiment: growth inhibition of resistant C. albicans, dose response, CaCi-8 strain, fluconazole, dry powder, set 4 (AID 488950). It counts as functional, organism-based.
Test [2] has as its system Candida albicans. As to the kind of experiment: Candida albicans growth inhibition, compound alone, dose response, counter-screen for antifungal drug resistance project, CaCi-2 strain, Alamar Blue, dry powder, set 2 (AID 488893). It counts as functional, organism-based.
Test [3] has as its system Candida albicans. As to the kind of experiment: Candida albicans growth inhibition, agent alone, dose response, counter-screen for reversing antifungal drug resistance, CaCi-2 strain, no fluconazole, dry powder, set 4 (AID 488932). It counts as functional, organism-based.
Test [4] deals with Beta-galactosidase (Escherichia coli, UniProt Q8VNN2). The test is described as follows: beta-galactosidase enzyme inhibitors and activators, dose response, artefact control for CCR6 antagonist project, biochemical, E. coli enzyme, set 3 (AID 504712). The class given is functional.
Beta-galactosidase, sequence (Q8VNN2 whole entry, the tested form may be a part): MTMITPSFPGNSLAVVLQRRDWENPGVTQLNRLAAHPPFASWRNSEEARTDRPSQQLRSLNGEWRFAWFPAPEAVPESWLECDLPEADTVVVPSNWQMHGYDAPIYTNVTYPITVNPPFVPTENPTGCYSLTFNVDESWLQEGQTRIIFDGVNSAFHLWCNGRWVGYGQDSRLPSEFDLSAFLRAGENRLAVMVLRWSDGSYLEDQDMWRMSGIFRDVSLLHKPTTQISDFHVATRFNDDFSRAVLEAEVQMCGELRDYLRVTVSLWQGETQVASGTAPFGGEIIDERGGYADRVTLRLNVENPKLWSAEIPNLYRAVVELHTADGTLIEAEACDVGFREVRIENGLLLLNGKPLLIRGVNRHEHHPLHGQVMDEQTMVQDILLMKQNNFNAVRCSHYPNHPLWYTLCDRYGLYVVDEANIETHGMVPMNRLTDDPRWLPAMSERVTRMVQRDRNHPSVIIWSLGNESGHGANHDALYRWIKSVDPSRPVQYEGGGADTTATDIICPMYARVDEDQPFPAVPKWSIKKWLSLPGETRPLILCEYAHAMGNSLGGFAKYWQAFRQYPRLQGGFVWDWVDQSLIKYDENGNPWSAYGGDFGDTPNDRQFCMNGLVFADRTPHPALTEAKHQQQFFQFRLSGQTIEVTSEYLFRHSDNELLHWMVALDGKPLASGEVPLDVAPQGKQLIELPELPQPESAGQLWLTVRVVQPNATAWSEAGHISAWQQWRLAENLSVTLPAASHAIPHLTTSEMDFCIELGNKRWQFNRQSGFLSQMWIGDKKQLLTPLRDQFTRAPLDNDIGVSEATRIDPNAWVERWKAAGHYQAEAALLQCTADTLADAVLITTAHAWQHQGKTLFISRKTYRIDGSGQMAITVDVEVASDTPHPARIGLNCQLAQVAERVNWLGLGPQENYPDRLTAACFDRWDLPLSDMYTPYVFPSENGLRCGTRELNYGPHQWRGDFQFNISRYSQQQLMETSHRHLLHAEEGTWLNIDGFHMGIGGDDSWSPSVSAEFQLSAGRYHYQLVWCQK
The target in test [5] is Apelin receptor (Homo sapiens, UniProt P35414). The test is described as follows: APJ beta-arrestin recruitment antagonism, SAR follow-up, selectivity assay for CCR6 antagonist project, cell-based, luminescent, enzyme-fragment complementation (AID 588359). It counts as functional. (In general: Activated receptors often draw arrestin, which recruitment assays turn into a signal.)
Apelin receptor, sequence (P35414 whole entry, the tested form may be a part): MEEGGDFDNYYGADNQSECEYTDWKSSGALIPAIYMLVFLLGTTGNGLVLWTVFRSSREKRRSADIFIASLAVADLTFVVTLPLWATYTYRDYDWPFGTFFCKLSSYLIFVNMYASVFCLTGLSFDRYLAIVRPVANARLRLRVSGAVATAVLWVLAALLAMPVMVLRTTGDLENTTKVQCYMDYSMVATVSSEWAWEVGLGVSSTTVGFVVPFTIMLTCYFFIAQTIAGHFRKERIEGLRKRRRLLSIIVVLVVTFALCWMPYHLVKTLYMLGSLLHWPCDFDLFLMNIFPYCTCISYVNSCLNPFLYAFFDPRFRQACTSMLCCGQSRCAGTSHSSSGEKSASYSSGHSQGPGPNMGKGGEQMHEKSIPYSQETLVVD

Test [6] can be described thus: growth suppression of PTEN-null colon cells, dose response, cell-based, HCT116 PTEN knockout (AID 1047).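 Note: HCT116 colon tumor cells with PTEN knocked out; cells exposed to compound for 60 hours before readout; potency for loss of cell viability measured by luminescence.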 It counts as functional.
Test [7] can be described thus: growth suppression of beta-catenin-knockout colon cells, dose response, cell-based, HCT116, human colon tumor (AID 1045).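 Note: HCT116 colon tumor cells with beta catenin knocked out; cells exposed to compound for 60 hours.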 It counts as functional.
The nature of test [8]: Luminescence Cell-Based Dose Retest to Confirm Inhibitors of Cancer Stem Cells. [Related pubchem assays (depositor defined):AID2717, AID2721]. The class given is functional. The settings on record: Homo sapiens.
In test [9] the target is T1, Microphthalmia-associated transcription factor (Homo sapiens, UniProt O75030).
T1 sequence (O75030 whole entry): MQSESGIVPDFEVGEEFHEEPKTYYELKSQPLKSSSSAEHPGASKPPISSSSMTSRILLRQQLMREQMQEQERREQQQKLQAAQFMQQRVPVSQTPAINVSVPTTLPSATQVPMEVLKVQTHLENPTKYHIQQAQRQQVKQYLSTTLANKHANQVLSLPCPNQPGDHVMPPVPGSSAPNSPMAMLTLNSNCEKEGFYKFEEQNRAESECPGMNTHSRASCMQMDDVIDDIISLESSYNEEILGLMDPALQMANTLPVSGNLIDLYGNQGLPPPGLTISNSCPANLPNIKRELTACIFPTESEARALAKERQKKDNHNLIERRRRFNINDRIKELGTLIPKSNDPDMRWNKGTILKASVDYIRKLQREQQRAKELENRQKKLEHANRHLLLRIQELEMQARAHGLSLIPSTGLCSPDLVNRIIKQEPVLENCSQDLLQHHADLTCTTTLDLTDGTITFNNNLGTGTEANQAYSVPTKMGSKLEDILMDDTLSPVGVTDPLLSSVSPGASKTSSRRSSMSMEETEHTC
The test is described as follows: TRPM1 promoter luciferase signal decrease, dose response, MITF inhibitor project, cell-based, SK-MEL-5, cherry-picked, set 3 (AID 493073).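 Note: SK-MEL-5 melanoma cells with luciferase driven by the MITF target TRPM1 promoter.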 It counts as functional.

Test [10] relates to A-375. As to the kind of experiment: A375 melanoma cell viability reduction, dose response, counter-screen for MITF modulator project, cherry-pick samples, set 2 (AID 540335). It counts as functional, cell-based. The settings on record: Homo sapiens. On the technique in general: Counterscreens check selectivity or assay interference.
Test [11] addresses T2, Tyrosine-protein phosphatase non-receptor type 7 (Homo sapiens, UniProt P35236).
T2 sequence (P35236 whole entry): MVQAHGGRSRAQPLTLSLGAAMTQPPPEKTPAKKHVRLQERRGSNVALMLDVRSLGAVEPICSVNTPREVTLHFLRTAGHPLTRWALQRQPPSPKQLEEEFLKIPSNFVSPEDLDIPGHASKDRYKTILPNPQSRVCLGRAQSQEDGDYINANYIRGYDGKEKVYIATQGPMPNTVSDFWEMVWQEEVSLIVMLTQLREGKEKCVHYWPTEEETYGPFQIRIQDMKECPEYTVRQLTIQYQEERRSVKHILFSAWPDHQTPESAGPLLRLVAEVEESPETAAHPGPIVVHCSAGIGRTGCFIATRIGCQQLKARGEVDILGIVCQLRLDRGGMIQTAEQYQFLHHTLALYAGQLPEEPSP
The class given is functional.

The target of test [12] is Glyceraldehyde-3-phosphate dehydrogenase (Homo sapiens, UniProt P04406).
Glyceraldehyde-3-phosphate dehydrogenase, sequence (P04406 whole entry): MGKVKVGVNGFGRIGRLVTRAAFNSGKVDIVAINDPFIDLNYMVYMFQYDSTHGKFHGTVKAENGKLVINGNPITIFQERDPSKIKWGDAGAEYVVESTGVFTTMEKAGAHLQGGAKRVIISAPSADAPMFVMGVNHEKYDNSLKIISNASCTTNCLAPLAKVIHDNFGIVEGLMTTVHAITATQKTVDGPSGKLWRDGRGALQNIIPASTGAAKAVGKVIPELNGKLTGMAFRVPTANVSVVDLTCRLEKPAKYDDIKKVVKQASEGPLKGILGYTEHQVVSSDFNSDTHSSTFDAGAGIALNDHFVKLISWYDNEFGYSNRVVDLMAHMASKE
Test [13] concerns the target T3, Dual specificity protein phosphatase 6 (Rattus norvegicus, UniProt Q64346).
Test [14] concerns the target T3, Dual specificity protein phosphatase 6. The class given is functional.

Data on 4 compounds can be found in ChEMBL document CHEMBL1201862, “PubChem BioAssay data set” (2004).

The source made the active and inactive calls.

T3 sequence (Q64346 whole entry): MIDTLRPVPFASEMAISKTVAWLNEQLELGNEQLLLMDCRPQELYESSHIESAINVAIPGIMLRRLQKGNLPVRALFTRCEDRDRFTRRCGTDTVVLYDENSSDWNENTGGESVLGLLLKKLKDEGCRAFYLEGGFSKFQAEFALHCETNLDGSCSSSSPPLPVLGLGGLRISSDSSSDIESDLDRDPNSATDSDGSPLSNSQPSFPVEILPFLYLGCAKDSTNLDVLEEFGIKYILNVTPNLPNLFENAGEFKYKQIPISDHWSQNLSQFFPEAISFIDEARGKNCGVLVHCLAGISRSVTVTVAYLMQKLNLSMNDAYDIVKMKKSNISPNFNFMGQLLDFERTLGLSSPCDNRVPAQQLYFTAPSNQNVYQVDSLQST

By AC50 is commonly meant the concentration at which the activity in the assay is half-maximal. Regarding `COCCC(=O)N1CCN(c2ccnc3cc(Cl)ccc23)CC1`, the values for the concentration at half-maximal activity (AC50) in test [1], in [2] and in test [3] were 72.5 µM (active), > 260 µM (inactive) and 136 µM (active), respectively.

One may read the IC50 as the concentration that gives 50% inhibition. Turning to `CC(C)(C)c1ccc2c(c1)OC(C(=O)N/N=C\c1ccccn1)CO2` (centres undefined), the results for the IC50 in test [4] and in [5] were > 66.6 µM (inactive) and 28.8 µM (inactive), respectively.

In general, EC50 refers to the concentration that produces a half-maximal response. For `O=C1C(Cl)=C(Nc2ccccc2)C(=O)c2ccccc21`, the EC50 in [6] is 8.47 µM (active); in test [7] it was 4.77 µM (active). Also, the half-maximal activity concentration (AC50) in test [8] was 0.779 µM (active); in [9], 2.88 µM (active); in test [10], 4.17 µM (active).

Turning to `CCn1c(SCC(=O)O)nc2sc3c(c2c1=O)CCCC3`, the IC50 in test [11] is > 100 µM (not active); in test [12], > 100 µM (not active); in test [13], > 100 µM (inactive); in test [14], > 100 µM (inactive).
